Reference: ChEMBL document CHEMBL1150196, “Isolation and structure of cytostatic steroidal saponins from the African medicinal plant Balanites aegyptica” (1991)
Converted amounts (≈) assume the structure as drawn.

These compounds were tested on P388 (assay: Cytotoxicity against mouse P388 cells). Conditions: read-out: ED50 (the source's name).
Type: functional

**Q.** Which EC50 does the source give for `C[C@H]1CC[C@@]2(OC1)O[C@H]1C[C@H]3[C@@H]4CC=C5C[C@@H](O[C@@H]6O[C@H](CO)[C@@H](O[C@@H]7O[C@H](CO)[C@@H](O)[C@H](O[C@@H]8O[C@H](CO)[C@@H](O)[C@H](O)[C@H]8O)[C@H]7O)[C@H](O)[C@H]6O[C@@H]6O[C@@H](C)[C@H](O)[C@@H](O)[C@H]6O)CC[C@]5(C)[C@H]4CC[C@]3(C)[C@H]1[C@@H]2C` [BALANITIN 4] here?
**A.** 0.41 µg/mL (≈ 0.392 µM)

**Q.** How did the EC50 turn out when `C[C@H]1CC[C@@]2(OC1)O[C@H]1C[C@H]3[C@@H]4CC=C5C[C@@H](O[C@@H]6O[C@H](CO)[C@@H](O[C@@H]7O[C@H](CO)[C@@H](O)[C@H](O[C@@H]8O[C@@H](C)[C@H](O)[C@@H](O)[C@H]8O)[C@H]7O)[C@H](O)[C@H]6O[C@@H]6O[C@@H](C)[C@H](O)[C@@H](O)[C@H]6O)CC[C@]5(C)[C@H]4CC[C@]3(C)[C@H]1[C@@H]2C` [BALANITIN 5] was run?
**A.** 2.4 µg/mL (≈ 2.33 µM)

**Q.** How did the EC50 turn out when `C[C@H]1CC[C@@]2(OC1)O[C@H]1C[C@H]3[C@@H]4CC=C5C[C@@H](O[C@@H]6O[C@H](CO)[C@@H](O[C@@H]7O[C@H](CO)[C@@H](O)[C@H](O)[C@H]7O)[C@H](O)[C@H]6O[C@@H]6O[C@@H](C)[C@H](O)[C@@H](O)[C@H]6O)CC[C@]5(C)[C@H]4CC[C@]3(C)[C@H]1[C@@H]2C` [BALANITIN 6] was run?
**A.** 0.21 µg/mL (≈ 0.237 µM)

**Q.** Which EC50 does the source give for `C[C@H]1CC[C@@]2(OC1)O[C@H]1C[C@H]3[C@@H]4CC=C5C[C@@H](O[C@@H]6O[C@H](CO)[C@@H](O[C@@H]7O[C@H](CO)[C@@H](O)[C@H](O[C@@H]8OC[C@@H](O)[C@H](O)[C@H]8O)[C@H]7O)[C@H](O)[C@H]6O[C@@H]6O[C@@H](C)[C@H](O)[C@@H](O)[C@H]6O)CC[C@]5(C)[C@H]4CC[C@]3(C)[C@H]1[C@@H]2C` [BALANITIN 7] here?
**A.** 0.22 µg/mL (≈ 0.216 µM)

**Q.** With `O=c1[nH]cc(F)c(=O)[nH]1` [FLUOROURACIL] as the compound, how does the EC50 read?
**A.** 0.08 µg/mL (≈ 0.615 µM)
